From patent US12084523B2, “Ubiquitin high affinity cyclic peptides and methods of use thereof” (TECHNION RESEARCH & DEVELOPMENT FOUNDATION LIMITED, priority 2018, dated 2024)

Tests used:
HeLa cells [1] = format: cell-based, human; settings: MTT
Method: Cell Viability Assays and Kinetic Experiments In order to assess the effect of the cyclic peptides on Hela cells, toxicity was determined using the MTT assay. Equal amounts of cells (8,000 cells/well) were plated in 96-well plates in triplicate. After 24 hours, attached cells were exposed to increasing concentrations of the cyclic peptides for another 24 hours. […] Optical density was recorded at 590 nm with a reference measurement at 630 nm.

[2] = system: p53 and p27 in HeLa cells; experiment: Western blot of proteasomal substrates p53 and p27; format: cell-based, human
Method: (§1) FIGS. 5A-5F are images and graphs showing the uptake of Ub4ix by living cells and its cellular effect. (5A) is an image of the structure of fluorescein-5-maleimide-Ub4ix. (5B) is micrographs of HeLa cells incubated in the presence of DMSO (Negative control) or fluorescein-5-maleimide-Ub4ix cyclic peptide (20 μM). Internalization of the peptide into the cells was monitored at the indicated time points. Ub4ix induced the accumulation of Ub-conjugates, as a result of proteolysis inhibition. (5C) is an image of a western blot analysis of ubiquitinated proteins from HeLa cells which were incubated in the presence of Ub4ix, fluorescein-5-maleimide-Ub4ix, or MG132 for the indicated time-periods. Cells were lysed, resolved using SDS-PAGE, proteins were transferred to a nitrocellulose membrane, and the membrane was blotted using an antibody against Ub-conjugates (Ub conj), and Actin. (5D) is a graph of radio-labeled proteins from HeLa cells which were labeled with radioactive S-Met and S-Cys and were then chased for 4 hours in “cold” media. Cells were either non-treated (Control), or incubated in the presence of DMSO, Ub4ix, or MG132, at the indicated concentrations. Radioactivity levels, resulting from protein breakdown during the chase phase, were measured using a scintillation counter. […]

26S proteasome = experiment: In vitro proteasome degradation assay of HA-α-globin-K48-linked tetra-Ub; format: biochemical; settings: 5.3 μM peptide
[3] = system: cellular protein breakdown in HeLa cells; experiment: Radioactive pulse and chase, degradation-inhibition assay; format: cell-based, human; settings: 4 h chase, vs non-treated or DMSO
Method: Radioactive Pulse and Chase
For degradation-inhibition assays, cells were labeled with ^35S-methionine and cysteine (20 μCi) for 16 hours, followed by a chase in cold medium for 4 hours, in the presence of DMSO, proteasome inhibitor MG132, or Ub4ix. Media were then collected, and amino acids were extracted using TCA precipitation. Radioactive readings were measured using a scintillation counter.
In order to directly measure the effect of Ub4ix on proteolysis, the inventors employed radiolabeling of cellular proteins, followed by a chase experiment in the presence of either Ub4ix or the proteasome inhibitor MG132. […] The inventors validated this inhibitory effect on protein breakdown with known proteasomal substrates, the proteins p53, and p27, bona fide substrates of the UPS.

USP2 [4] = experiment: In vitro deubiquitination assay, USP2 with K48-linked tetra-Ub; format: biochemical; settings: tetra-Ub chain, after removal of the distal Ub (tri-Ub)
Method: (§2) In Vitro Deubiquitination Assay
(§3) In vitro deubiquitination reactions were performed in a Tris buffer (50 mM TRIS, 1 mM TCEP, pH 7.7), containing 2 μM ^K48Ub2/4, then the specific DUB (50 mM Tris, 0.5 mM EDTA, 1 mM TCEP and 0.5 mg/ml ovalbumin, pH 7.5) was added. The reaction mixtures were incubated at 37° C. and at the indicated time points the reactions were stopped by taking aliquots and mixed them with 3× sample buffer and boiling. The same amounts were loaded on 14% SDS-PAGE, electro-blotted to nitrocellulose membrane and probed with an anti-Ub antibody. Bands were quantified with Image Quant LAS 4000 (GE Healthcare).
(§4) The inventors further chose to examine the effect of these cyclic peptides on two DUBs: OTUB1, a K48-linkage chain specific DUB, and USP2, which cleaves most Ub chains without specificity, using K48-linked di- and tetra-Ub chains as substrates.

[5] = system: Ub-conjugates in HeLa cells; experiment: Western blot of cellular Ub-conjugates; format: cell-based, human
Method: as §1

HeLa cells [6] = experiment: Annexin V-FITC FACS apoptosis analysis; format: cell-based, human; settings: 10 μM, 24 h and 48 h
Method: Fluorescence-Activated Cell Sorting (FACS) Analysis
Induction of apoptosis in Hela cells by treatment with cyclic peptides were determined after 24 and 48 hours incubation in a dose dependent manner, using annexin V-FITC apoptosis detection kit (BD Biosciences) according to the manufacturer s protocol. Two (2)×10^5 cells/well were seeded in 6-well plates and treated with an inhibitor for 24/48 hours in a dose dependent manner. The increase in fluorescence, which indicates the apoptosis level in the treated cells, were monitored using flow cytometry and compared to untreated cells containing DMSO as a negative control and MG132 as a positive control.
Given that Ub4ix has a pronounced inhibitory effect on the UPS system, the inventors further wanted to examine whether it inhibit cell growth and induce apoptosis in cancer cells. […] The effects of the cyclic peptides on apoptosis were evaluated using FACS analysis.

USP2 [7] = experiment: In vitro deubiquitination assay, USP2 with K48-linked di-Ub; format: biochemical; settings: di-Ub as the substrate
Method: as §2, §3, §4

[8] = system: protein synthesis in HeLa cells; experiment: Radioactive pulse assay of protein synthesis; format: cell-based, human; settings: 35S-Met/Cys incorporation
Method: HeLa cells were incubated with either DMSO, ribosomal inhibitor cycloheximide (CHX), or Ub4ix. After 4 hours, media were replaced with media containing radioactive Methionine and Cysteine, and cells where pulsed for 4 hours. Cells were thoroughly washed, proteins were extracted from the cells, and the radioactive readings of each sample were measured using a scintillation counter, indicating the extent of incorporation of radiolabeled Methionine and Cysteine into newly synthesized proteins.
For the assay of inhibitions of protein synthesis, cells were incubated with DMSO, ribosomal inhibitor cycloheximide (CHX), or Ub4ix. After 4 hours, media were replaced with medium containing ^35S-methionine and cysteine (20 μCi) and cells where pulsed for 4 hours. Plates were extensively washed with ice-cold PBS and proteins were extracted from cells using trichloroacetic acid (TCA) precipitation. The radioactive readings were measured using a scintillation counter.

^K48Ub4 = target: T1, ^K48Ub4 (Homo sapiens, UniProt P0CG47); experiment: SPR binding of cyclic peptides to K48-linked tetra-ubiquitin; settings: SPR, target ^K48Ub4
T1 construct: solid phase peptide synthesis of Ub monomers (modified as required); made in house
Method: Surface Plasmon Resonance (SPR)
The interactions between cyclic peptides: U2i, U2ii, U4i, U4ix and Ub1, ^K48Ub2 and ^K48Ub4, were determined using BIACORE T100 instrument (GE healthcare) equipped with a biotin CAPture kit Series S chip. The buffer in all experiments contained 50 mM HEPES, pH 7.3, 150 mM NaCl, 0.05% Tween20, 2 mM DTT with 0.2% DMSO. Biotinylated Ub1, ^K48Ub2 and ^K48Ub4 were loaded to approximately equal molar amounts on the SPR chip, and various concentrations of cyclic peptides were flowed over at […] for 120 sec, before initiation of dissociation by flowing buffer over at […] for further 700 sec. Traces were fit to the simplest, two-state model for binding. Association was fit to a single exponential assuming pseudo-first order conditions, whereas the dissociation trace was fit to single exponential plus a drift term. Finally, due to the poor quality of the traces for U4ix binding ^K48Ub2, the amplitude of the association kinetic trace at different concentrations of peptide was fit to estimate the lower bound for KD.
Each peptide was flowed over Ub1, ^K48Ub2 and […] immobilized on SPR chips. There was no detectable binding to Ub1 for any of the peptides, as expected, as Ub1 binding was explicitly selected against during the RaPID protocol. […] However, Ub2i and Ub2ii also strongly bound ^K48Ub4, with a low apparent KD and an increased SPR response (FIG. 1E). This was consistent with a higher stoichiometry of binding to the tetramer, which could be explained by additional binding sites in ^K48Ub4. Indeed, the ^K48Ub2 structure can be superimposed twice on the ^K48Ub4 crystal structure (FIG. 10). […] However, similar to Ub2i and Ub2ii, Ub4i also bound ^K48Ub2. This was perhaps unsurprising, given the high sequence identity between Ub4i and Ub2i.

## CC[C@H](C)[C@@H]1NC(=O)[C@H](Cc2c[nH]c3ccccc23)NC(=O)[C@H](Cc2c[nH]c3ccccc23)NC(=O)[C@H](CC(=O)O)NC(=O)CNC(=O)[C@H](CO)NC(=O)[C@H](CC(=O)O)NC(=O)[C@H](CC(=O)O)NC(=O)[C@H](CC(C)C)NC(=O)[C@H](Cc2ccc(O)cc2)NC(=O)[C@H](CC(C)C)NC(=O)[C@@H](Cc2c[nH]c3ccccc23)NC(=O)CSC[C@@H](C(=O)NCC(N)=O)NC1=O [Ub4ix]
HeLa cells [1]
  suppression of cell growth: most effective
[2]
  p53 and p27 levels: accumulated over time
26S proteasome
  inhibition of proteasomal degradation of α-globin-K48-linked tetra-Ub: clear inhibition
[3]
  protein breakdown: markedly reduced
USP2 [4]
  inhibition of USP2: strong inhibition
[5]
  cellular level of Ub-conjugates: elevation in Ub-conjugates
HeLa cells [6]
  apoptosis: clear increase in apoptosis
USP2 [7]
  inhibition of USP2: minimal inhibition
[8]
  effect on protein synthesis: does not interfere with protein synthesis
^K48Ub4
  koff: 0.021 s⁻¹
  kon: 3.52e+06 M⁻¹ s⁻¹
